Patent US20240239763A1, “CRYSTAL FORM OF THIOPHENE DERIVATIVE AND PREPARATION METHOD THEREFOR” (DONGBAO PURPLE STAR (HANGZHOU) BIOPHARMACEUTICAL CO., LTD., priority 2021, published 2024)
pIC50: −log10 of the molar value. Each block holds one compound with its values, some of them ahead of it.

Columns and labels:
[1] = molecular target: CYP2D6 (Homo sapiens (Human), UniProt P10635); assay: Cytochrome P450 isoenzyme inhibition, human liver microsomes; assay type: in vitro ADME; conditions: read-out: Cytochrome P450 isoenzymes IC50, CYP2D6
CYP2D6, sequence (P10635 whole entry): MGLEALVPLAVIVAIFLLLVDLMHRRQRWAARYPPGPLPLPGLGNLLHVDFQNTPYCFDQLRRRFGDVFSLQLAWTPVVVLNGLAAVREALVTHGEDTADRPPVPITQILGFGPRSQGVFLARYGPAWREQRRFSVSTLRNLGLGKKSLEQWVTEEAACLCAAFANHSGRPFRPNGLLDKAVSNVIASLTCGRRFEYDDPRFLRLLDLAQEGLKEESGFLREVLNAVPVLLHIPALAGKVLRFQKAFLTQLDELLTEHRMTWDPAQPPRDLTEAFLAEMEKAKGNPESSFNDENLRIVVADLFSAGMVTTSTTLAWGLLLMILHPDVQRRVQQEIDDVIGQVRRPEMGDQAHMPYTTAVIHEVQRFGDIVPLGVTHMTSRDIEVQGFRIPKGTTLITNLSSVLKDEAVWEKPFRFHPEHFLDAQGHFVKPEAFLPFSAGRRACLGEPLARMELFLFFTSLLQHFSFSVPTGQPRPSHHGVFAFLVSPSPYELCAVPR
Description: (§1) To determine the inhibitory activity of the test compound against different subtypes of human cytochrome P450 isoenzymes. Test compounds, standard inhibitors (at 100× final concentration), and mixed substrate working solutions were prepared; the microsomes (purchased from Corning Inc.) stored at −80° C. were taken out and thawed. To the corresponding wells were added 20 μL of the test compound and standard inhibitor solutions. Meanwhile, 20 μL of the respective solvent was added to the No Inhibitor Control (NIC) and blank control wells. Next, 20 μL of mixed substrate solution was added to the corresponding wells, except the blank wells where 20 μL of phosphate buffer (PB) was added. A human liver microsome solution was prepared (immediately returned to the fridge after the date of use was marked). Then, 158 μL of this solution was added to all the wells. The sample plate was placed in a 37° C. water bath for pre-incubation. A co-enzyme factor (NADPH) solution was then promptly prepared. After 10 minutes, 20 μL of NADPH solution was added to all wells. The sample plate was shaken to mix and placed back into a 37° C. water bath for an additional 10 minutes of incubation. At the respective time points, the reaction was terminated by adding 400 μL of cold acetonitrile solution (internal standard at 200 ng/ml of tolbutamide and labetalol). The sample plate was mixed thoroughly and was then centrifuged at 4000 rpm for 20 minutes to precipitate proteins. 200 μL of the supernatant was taken and mixed with 100 μL of water, after which it was sent for LC/MS/MS analysis.

[2] = molecular target: CYP2C19 (Homo sapiens (Human), UniProt P33261); assay: as above; assay type: in vitro ADME; conditions: read-out: Cytochrome P450 isoenzymes IC50, CYP2C19
CYP2C19, sequence (P33261 whole entry): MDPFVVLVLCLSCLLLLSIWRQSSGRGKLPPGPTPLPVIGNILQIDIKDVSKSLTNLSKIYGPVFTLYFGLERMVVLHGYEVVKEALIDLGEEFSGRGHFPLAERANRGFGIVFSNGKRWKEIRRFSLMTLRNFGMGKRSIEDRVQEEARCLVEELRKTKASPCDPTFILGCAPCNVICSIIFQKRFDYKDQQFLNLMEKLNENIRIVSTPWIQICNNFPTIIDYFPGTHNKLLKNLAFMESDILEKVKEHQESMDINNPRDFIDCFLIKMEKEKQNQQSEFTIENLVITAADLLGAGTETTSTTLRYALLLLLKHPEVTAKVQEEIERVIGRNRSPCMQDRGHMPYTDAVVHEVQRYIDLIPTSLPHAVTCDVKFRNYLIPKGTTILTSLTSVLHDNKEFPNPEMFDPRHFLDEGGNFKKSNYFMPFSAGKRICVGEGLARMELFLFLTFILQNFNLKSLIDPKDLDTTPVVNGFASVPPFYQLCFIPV
Description: as §1

[3] = molecular target: CYP2C9 (Homo sapiens (Human), UniProt P11712); assay: as above; assay type: in vitro ADME; conditions: read-out: Cytochrome P450 isoenzymes IC50, CYP2C9
CYP2C9, sequence (P11712 whole entry): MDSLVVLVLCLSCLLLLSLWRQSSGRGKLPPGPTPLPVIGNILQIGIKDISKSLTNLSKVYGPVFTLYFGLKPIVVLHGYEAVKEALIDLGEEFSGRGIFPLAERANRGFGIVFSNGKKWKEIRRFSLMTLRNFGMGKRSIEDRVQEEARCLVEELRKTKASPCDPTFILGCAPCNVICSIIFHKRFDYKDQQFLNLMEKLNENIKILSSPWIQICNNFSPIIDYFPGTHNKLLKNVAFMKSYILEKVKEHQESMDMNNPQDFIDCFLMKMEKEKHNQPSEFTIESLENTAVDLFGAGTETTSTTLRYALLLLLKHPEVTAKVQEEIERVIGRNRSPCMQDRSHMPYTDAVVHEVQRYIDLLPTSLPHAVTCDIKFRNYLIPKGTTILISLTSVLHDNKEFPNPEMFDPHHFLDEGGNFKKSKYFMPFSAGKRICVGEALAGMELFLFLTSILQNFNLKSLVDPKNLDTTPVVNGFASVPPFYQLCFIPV
Description: as §1

[4] = molecular target: CYP3A4-M (Homo sapiens (Human), UniProt P08684); assay: as above; assay type: in vitro ADME; conditions: read-out: Cytochrome P450 isoenzymes IC50, CYP3A4-M
CYP3A4-M, sequence (P08684 whole entry): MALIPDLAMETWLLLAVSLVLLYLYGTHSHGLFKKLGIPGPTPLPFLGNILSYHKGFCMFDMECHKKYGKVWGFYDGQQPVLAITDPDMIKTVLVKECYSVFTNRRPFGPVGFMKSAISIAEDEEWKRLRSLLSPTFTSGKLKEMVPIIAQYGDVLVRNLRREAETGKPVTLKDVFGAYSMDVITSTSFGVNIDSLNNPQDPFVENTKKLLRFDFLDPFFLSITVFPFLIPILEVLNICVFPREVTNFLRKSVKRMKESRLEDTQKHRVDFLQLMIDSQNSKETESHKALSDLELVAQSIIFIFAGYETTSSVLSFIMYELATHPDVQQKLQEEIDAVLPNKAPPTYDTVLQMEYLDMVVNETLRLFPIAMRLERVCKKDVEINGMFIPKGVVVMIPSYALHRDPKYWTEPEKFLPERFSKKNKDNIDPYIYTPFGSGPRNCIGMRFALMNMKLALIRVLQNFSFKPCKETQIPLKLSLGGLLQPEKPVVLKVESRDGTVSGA
Description: as §1

[5] = Hepatic metabolic stability (HMS) in human liver cells; assay type: in vitro ADME; conditions: hepatocytes (liver cells) in suspension, read-out: Hepatic intrinsic clearance rates
Description: (§2) To test the metabolic stability of the test compound in human and rat liver cells.
(§3) 2.1 Test Compound (10 mM), controls: 7-Ethoxycoumarin (30 mM), 7-Hydroxycoumarin (control, 30 mM)
(§4) 1) A 30 mM solution was prepared by dissolving a precise amount of the positive control compound in dimethyl sulfoxide (DMSO).
(§5) 2) In a 96-well plate, the 10 mM test compound and 30 mM positive control compound were diluted to 1 mM and 3 mM, respectively, using DMSO.
(§6) 3) Acetonitrile was used to further dilute the 1 mM test compound and 3 mM positive control compound to quantification solutions with final concentrations of 100 μM and 300 μM, respectively.
(§7) 4) The stored cells were thawed, separated, and suspended in culture mediums. These cells were then diluted to a concentration of 0.5×10^6 cells/mL using pre-warmed culture mediums.
(§8) 5) In the 96-well plate, 198 μL of the pre-warmed cell suspension was added. […]
(§9) Through the following formula, the residual rates for the test compound and the control compound were calculated.
(§10) The elimination rate constant k for the test compound and control compound in hepatocytes was calculated by plotting the logarithm of the residual rate against time. The half-life (T1/2) and intrinsic clearance rate (CLint) were determined based on the elimination rate constant k. […]

[6] = system: P-gp (human MDR1); assay: MDR1 membrane permeability test (bidirectional); assay type: in vitro ADME, canine; conditions: dog, MDR1-MDCK II
Description: MDR1-MDCK II cells are Madin-Darby canine kidney cells transfected with the human MDR1 gene, enabling stable high expression of P-gp. The purpose of the present study is to test the bidirectional permeability of the compound across the MDR1-MDCK II cell model and evaluate its potential for efflux transport.
MDR1-MDCK II cells (sourced from Piet Borst at the Netherlands Cancer Institute) were seeded on polyethylene terephthalate (PET) membranes in a 96-well insert system at a density of 2.5×10^5 cells/mL. The cells were cultured until they formed a confluent monolayer over 4-7 days.
Test compounds were diluted in transport buffer (HBSS containing 10 mM Hepes with DMSO, pH 7.4) to a concentration of 2 μM (DMSO<1%) and were applied to either the apical or basolateral side of the cell monolayer. […] Additionally, efflux ratios for each compound were measured, and both test and reference compounds were quantified, based on the peak area ratio of the analyte to IS by LC/MS/MS analysis. After the transport assay, the integrity of the cell monolayer was determined using a Lucifer Yellow exclusion assay. […] The relative fluorescence units (RFU) of […] were measured at 425/528 nm (excitation/emission) using an Envision microplate reader.
The apparent permeability coefficient (Papp, cm/s), efflux ratio, and recovery rate were calculated using the following formulas: […]

[7] = Pharmacokinetics in SD rats in vivo; conditions: male, Sprague-Dawley, rat, plasma
Description: To test the pharmacokinetics of the compound in SD rats in vivo
Sprague Dawley rats (male, 180-350 g, 6 to 10 weeks of age, Beijing Vital River).
The solution was then filtered through a micropore membrane for later use. […] Six male SD rats were divided into two groups. […] In the second group, animals received a single oral gavage dose of the test compound at 10 mg/kg. […] Whole blood was centrifuged at 3200 g for 10 minutes at 4° C. to obtain plasma. The concentrations of the compound and uric acid (in the oral gavage group only) in the plasma were measured using the LC/MS/MS method. Pharmacokinetic parameters such as peak concentration, time to reach peak concentration, clearance rate, half-life, area under the curve, and bioavailability were calculated using Phoenix WinNonlin software.

[8] = Solid-state stability test of crystal form C; assay type: physicochemical; conditions: for Content / purity: crystal form C
Description: They were separately placed under stability conditions of high temperature (60° C.), high humidity (25° C./92.5% humidity), combined high temperature and high humidity (40° C./75% humidity), and light exposure. For the sample placed under high temperature and high humidity, the bottle was sealed with aluminum foil, with small holes punctured in the aluminum foil to ensure that the samples could fully contact the ambient air; the sample placed under strong light exposure was sealed with a quartz glass cap. […] The samples placed under combined high temperature and high humidity (40° C./75% humidity) were taken for testing in the 1st, 2nd, and 3rd months (appearance, related substances, and content). The samples placed under light exposure conditions were taken for testing when the total illuminance reached 1.2×10^6 Lux•hr.

[9] = Hepatic metabolic stability (HMS) in rat liver cells; assay type: in vitro ADME; conditions: hepatocytes (liver cells) in suspension, read-out: Hepatic intrinsic clearance rates
Description: as §2, §3, §4, §5, §6, §7, §8, §9, §10

[10] = Hygroscopicity study by dynamic vapor sorption (DVS); assay type: physicochemical; conditions: 25° C. and 80% RH
Description: Instrument model: Intrinsic dynamic vapor sorption analyzer Test conditions: A sample (10 to 30 mg) is taken and placed in a DVS sample tray for testing.
Detailed parameters for DVS are as follows:
Equilibrium: dm/dt=0.002%/min (minimum: 10 minutes, maximum: 180 minutes)
RH (%) test increment range: 0% to 95% to 0%
DVS Intrinsic dynamic vapor sorption analyzer
in a DVS sample tray for testing.

[11] = 2.89 mg/kg, 2.89 mpk/intravenous injection
[12] = 40° C., relative humidity of 75%, open-top, 1M
[13] = 40° C., relative humidity of 75%, open-top, 2M
[14] = 40° C., relative humidity of 75%, open-top, 3M
[15] = High humidity (25° C./relative humidity of 92.5%, open-top), 5 days
[16] = High humidity (25° C./relative humidity of 92.5%, open-top), 10 days
[17] = High humidity (25° C./relative humidity of 92.5%, open-top), 30 days
[18] = High temperature (60° C., open-top), 5 days
[19] = High temperature (60° C., open-top), 10 days
[20] = High temperature (60° C., open-top), 30 days
[21] = Light exposure (total illuminance: 1.2 × 10^6 Lux · hr/near ultraviolet: 200 w · hr/m^2), 5 days
[22] = Light exposure (total illuminance: 1.2 × 10^6 Lux · hr/near ultraviolet: 200 w · hr/m^2), 10 days

- pIC50 [1]: < 4.30
- pIC50 [2]: < 4.30
- pIC50 [3]: 4.74
- pIC50 [4]: < 4.30
- CLint scaled at 1 µM [5]: 31.8 mL/min/kg
- Papp A→B at […], 2 µM ([6]; pH 7.4, A-to-B): 26.4 ×10⁻⁶ cm/s
- Papp B→A at […], 2 µM ([6]; pH 7.4, B-to-A): 6.63 ×10⁻⁶ cm/s
- AUC(0-inf) [7, 11]: 41.8 µM·h
- C0 [7, 11]: 96.6 µM
- clearance [7, 11]: 3.59 mL/min/kg
- Vd ([7]; 2.89 mg/kg, 2.89 mpk/intravenous injection, read-out: Vdss): 0.32 L/kg
- AUC(0-inf) ([7]; 8.58 mg/kg, 8.58 mpk/oral): 86.6 µM·h
- Cmax ([7]; 8.58 mg/kg, 8.58 mpk/oral): 27.5 µM
- Tmax ([7]; 8.58 mg/kg, 8.58 mpk/oral): 30 min
- bioavailability ([7]; 8.58 mg/kg, 8.58 mpk/oral): 62.1%
- half-life ([7]; 8.58 mg/kg, 8.58 mpk/oral): 148 min
- Content ([8]; 0 days (initial)): 98.1%
- purity ([8]; 0 days (initial)): 98.84%
- Content [8, 12]: 97.8%
- purity [8, 12]: 98.83%
- Content [8, 13]: 97.8%
- purity [8, 13]: 99.02%
- Content [8, 14]: 97.8%
- purity [8, 14]: 98.86%
- Content [8, 15]: 97.9%
- purity [8, 15]: 98.90%
- Content [8, 16]: 97.9%
- purity [8, 16]: 98.90%
- Content [8, 17]: 97.9%
- purity [8, 17]: 98.80%
- Content [8, 18]: 98.5%
- purity [8, 18]: 98.94%
- Content [8, 19]: 98.3%
- purity [8, 19]: 98.95%
- Content [8, 20]: 98.1%
- purity [8, 20]: 98.87%
- Content [8, 21]: 97.6%
- purity [8, 21]: 98.89%
- Content [8, 22]: 98.0%
- purity [8, 22]: 98.91%
- CLint scaled at 1 µM [9]: 188 mL/min/kg
Compound: N#Cc1sc(-c2ccc(C(=O)O)c(O)c2)c2c1CCC(F)(F)C2 [Compound of formula (I)]

- hygroscopicity classification [10]: no hygroscopicity
- ΔW (hygroscopic weight gain) [10]: 0.196%
- solid-state stability (in words) ([8]; high temperature, high humidity, strong light exposure, and accelerated conditions): good stability
Compound: N#Cc1sc(-c2ccc(C(=O)O)c(O)c2)c2c1CCC(F)(F)C2 [crystal form C]
